Our source for the Dmax, IC50 and DC50 values is US12310975B2, “Modulators of BCL6 proteolysis and associated methods of use” (Arvinas Operations, Inc., priority 2019, dated 2025).

The target in the assay is BCL6 (Homo sapiens (Human), UniProt P41182). The assay is described as follows: Immunofluorescence high content imaging of BCL6 degradation in T47D cells. The class given is cell-based. The method, then:
Immunofluorescence Protocol for High Cotent Imaging of BCL6
T47D cells were seeded in 100 μl volume of RPMI1640-10% FBS in a 96-well black/clear bottom plates for adherent lines (Corning #3904).
Day 1. T47D breast cancer epithelial cells were seeded at a density so that confluence is ˜70-90% at endpoint. Cells were seeded at 7K/0.1 ml/well the morning prior to the addition of exemplary bifunctional degradation compounds.
Day 2. Prepare an 11 point 3-fold serial dilution of exemplary bifunctional compound in DMSO and aliquot an appropriate volume to cell growth media to generate a 2× final concentration of exemplary bifunctional compound. Add an equal volume (0.1 ml) of 2× exemplary bifunctional compound/media mix to previously plated cells, for a final top concentration in aqueous cell growth media of 0.1 or 1 μM. Incubate for 3 days at 37° C., 5% CO2.
Day 5 Immunofluorescence. Discard cell media. Wash wells with 200 μl of room temperature phosphate-buffered saline (PBS). Prepared 4% paraformaldehyde (PFA) from 16% PFA (Electron Microscopy Sciences #15710) using 1×PBS. Fifty μl of 4% PF was added to each well and incubate for 15 minutes at room temperature to fix the cells. The PFA was aspirated and the cells washed twice with PBS (200 μl)).
Prepared 0.1% Triton X-100 in PBS using 10% triton X-100 stock. The cells were permeabilized by adding 100 ul of the 0.1% Triton X-100 in PBS to each well to permeabilize cells and incubating at room temperature for 15 minutes. Cells were washed twice with PBS.
Prepared 3% BSA/PBS (from Thermofisher #37515 Blocker BSA in TBS, 10%), and 100 ul was added to each well. The cells were incubated for at least 1 hour at room temperature.
Prepared 1% BSA/PBS using Blocker BSA/PBS, and the 3% BSA/PBS removed from the wells.
For no primary antibody controls, 50 μl 1% BSA/PBS was added.
Primary antibody (BCL6 Rb Ab, CST-14895, Cell Signaling) was diluted 1:300 in 1% BSA/PBS using Blocker BSA/PBS.
Fifty μl of primary antibody added to all remaining wells (i.e., all wells other than the primary antibody controls) and the cells were incubated overnight at 4° C. with slow orbital movement.
Day 6. Contents of the wells was removed and the cells washed four times with 200 ul PBS. 1% BSA/PBS was prepared using Blocker BSA in PBS.
Diluted secondary antibody goat anti-Rb IgG Alexa-488 1:1000, and cell mask-Alexa-647 1:3000 in 1% BSA/PBS in the same mix. Add 50 μl to each well and incubate at room temperature for 1 hour in the dark.
Cells were washed three times with 200 ul PBS, and then incubated for 10 minutes with 100 ul Hoechst dye at 1 μg/mL (20 mM stock) to stain cell nuclei. Wells were then washed with 200 μl PBS, and 100 ul of PBS was added to each well and the plate covered plate with a plastic opaque cover. Plates were stored at 4° C. and covered in aluminum foil until imaged.
Plates were equilibrated to room temperature prior to reading. The bottom of the plate was wiped with 70% isopropanol immediately prior to imaging.
10×, 4 fields/well, include Top hat smoothing in the analysis protocol.

Where two headings read alike, the source gives them in different places.

One may read the Dmax as the largest share of the target that was removed. A higher Dmax goes with deep degradation. As usually defined, the IC50 is the concentration at which inhibition is half-maximal. Read a high IC50 as a need for much substance. Where the note is “T47D cells”, `CNC(=O)COc1cc2cc(Nc3nc(N4CCN(CC5CCN(c6ccc7c(c6)C(=O)N(C6CCC(=O)NC6=O)C7=O)CC5)CC4)ncc3Cl)ccc2n(CCC2CC2)c1=O` (stereo not drawn) [compound 333, 2-{[6-({5-chloro-2-[4-({1-[2-(2,6-dioxopiperidin-3-yl)-1,3-dioxo-2,3-dihydro-1H-isoindol-5-yl]piperidin-4-yl}methyl)piperazin-1-yl]pyrimidin-4-yl}amino)-1-(2-cyclopropylethyl)-2-oxo-1,2-dihydroquinolin-3-yl]oxy}-N-methylacetamide] had a Dmax of 50 to 70% and an IC50 below 10 nM. As for `CC(=O)COc1cc2cc(Nc3nc(N4CCN(C(C)(C)C5CCN(c6ccc7c(c6)C(=O)N(C6CCC(=O)NC6=O)C7=O)CC5)CC4)ncc3Cl)ccc2n(C)c1=O` (stereo not drawn) [compound 257, 5-(4-(2-(4-(5-chloro-4-((1-methyl-2-oxo-3-(2-oxopropoxy)-1,2-dihydroquinolin-6-yl)amino)pyrimidin-2-yl)piperazin-1-yl)propan-2-yl)piperidin-1-yl)-2-(2,6-dioxopiperidin-3-yl)isoindoline-1,3-dione], the half-inhibitory concentration (IC50) was 10 to 50 nM. Also, the maximal degradation (Dmax) (T47D) was at least 70%.

As for `CNC(=O)COc1cc2cc(Nc3nc(N4CCC(OC5CCN(c6cccc7c6C(=O)N(C6CCC(=O)NC6=O)C7=O)CC5)CC4)ncc3Cl)ccc2n(C)c1=O` (stereo not drawn) [compound 264, 2-((6-((5-chloro-2-(4-((1-(2-(2,6-dioxopiperidin-3-yl)-1,3-dioxoisoindolin-4-yl)piperidin-4-yl)oxy)piperidin-1-yl)pyrimidin-4-yl)amino)-1-methyl-2-oxo-1,2-dihydroquinolin-3-yl)oxy)-N-methylacetamide], the IC50 is below 10 nM. The compound further returned a Dmax (T47D) of at least 70%.

Where the note is “T47D cells”, `CNC(=O)COc1cc2cc(Nc3nc(N4CCN(CC5CCN(c6cc(F)c(C(=O)NC7CCC(=O)NC7=O)c(OC)c6)CC5)CC4)ncc3Cl)ccc2n(C)c1=O` (stereo not drawn) [compound 354, 4-[4-({4-[5-chloro-4-({1-methyl-3-[(methylcarbamoyl)methoxy]-2-oxo-1,2-dihydroquinolin-6-yl}amino)pyrimidin-2-yl]piperazin-1-yl}methyl)piperidin-1-yl]-N-(2,6-dioxopiperidin-3-yl)-2-fluoro-6-methoxybenzamide] yielded a Dmax of 50 to 70% and a 50% inhibitory concentration (IC50) below 10 nM. `CNC(=O)COc1cc2cc(Nc3nc(N4CCC(CN5[C@H](C)CN(c6ccc(C(=O)NC7CCC(=O)NC7=O)c(F)c6)C[C@@H]5C)CC4)ncc3Cl)ccc2n(C)c1=O` (stereo partly drawn) [compound 288, 4-[(3R,5S)-4-({1-[5-chloro-4-({1-methyl-3-[(methylcarbamoyl)methoxy]-2-oxo-1,2-dihydroquinolin-6-yl}amino)pyrimidin-2-yl]piperidin-4-yl}methyl)-3,5-dimethylpiperazin-1-yl]-N-(2,6-dioxopiperidin-3-yl)-2-fluorobenzamide] showed an IC50 of 50 to 100 nM. Where the note is “T47D”, this compound gave a Dmax of 50 to 70%. Under “T47D cells”, `CNC(=O)COc1cc2cc(Nc3nc(N4C[C@@H](C)N(CC5CCN(c6cccc(C(=O)NC7CCC(=O)NC7=O)c6F)CC5)[C@@H](C)C4)ncc3Cl)ccc2n(C)c1=O` (stereo partly drawn) [compound 355, 3-(4-{[(2R,6S)-4-[5-chloro-4-({1-methyl-3-[(methylcarbamoyl)methoxy]-2-oxo-1,2-dihydroquinolin-6-yl}amino)pyrimidin-2-yl]-2,6-dimethylpiperazin-1-yl]methyl}piperidin-1-yl)-N-(2,6-dioxopiperidin-3-yl)-2-fluorobenzamide] had a Dmax of 50 to 70% and a half-inhibitory concentration (IC50) of 50 to 100 nM.

In the case of `O=C1CCC(N2C(=O)c3ccc(OCCOCCN4CCC(Oc5cc(Nc6ccc7c(c6)CCC(=O)N7)c(Cl)cc5[N+](=O)[O-])CC4)cc3C2=O)C(=O)N1` (stereo not drawn) [compound 74, 5-(2-(2-(4-(4-chloro-2-nitro-5-((2-oxo-1,2,3,4-tetrahydroquinolin-6-yl)amino)phenoxy)piperidin-1-yl)ethoxy)ethoxy)-2-(2,6-dioxopiperidin-3-yl)isoindoline-1,3-dione], the DC50 (class symbols A-D, read-out: EC50 (nM)*) was above 100 nM. Consider `CNC(=O)COc1cc2cc(Nc3nc(N4CCC[C@H](COc5cccc6c5C(=O)N(C5CCC(=O)NC5=O)C6=O)C4)ncc3Cl)ccc2n(CCC2CC2)c1=O` (stereo partly drawn) [compound 334, 2-{[6-({5-chloro-2-[(3S)-3-({[2-(2,6-dioxopiperidin-3-yl)-1,3-dioxo-2,3-dihydro-1H-isoindol-4-yl]oxy}methyl)piperidin-1-yl]pyrimidin-4-yl}amino)-1-(2-cyclopropylethyl)-2-oxo-1,2-dihydroquinolin-3-yl]oxy}-N-methylacetamide], for which, under “T47D cells”, the Dmax was at least 70% and the concentration for half-maximal inhibition (IC50) is below 10 nM. The corresponding values for `CNC(=O)COc1cc2cc(Nc3nc(N4CCC(OC5CC6(CCN(c7ccc(C(=O)NC8CCC(=O)NC8=O)c(OC)c7)CC6)C5)CC4)ncc3Cl)ccc2n(C(C)C)c1=O` (stereo not drawn) [compound 432, 4-[2-({1-[5-chloro-4-({3-[(methylcarbamoyl)methoxy]-2-oxo-1-(propan-2-yl)-1,2-dihydroquinolin-6-yl}amino)pyrimidin-2-yl]piperidin-4-yl}oxy)-7-azaspiro[3.5]nonan-7-yl]-N-(2,6-dioxopiperidin-3-yl)-2-methoxybenzamide] are at least 70% and 10 to 50 nM.

Turning to `CNC(=O)COc1cc2cc(Nc3nc(N4C[C@@H](C)N(CC5CCN(c6ccc(C(=O)NC7CCC(=O)NC7=O)c(F)c6)CC5)[C@@H](C)C4)ncc3Cl)ccc2n(C)c1=O` (stereo partly drawn) [compound 284, 4-(4-{[(2R,6S)-4-[5-chloro-4-({1-methyl-3-[(methylcarbamoyl)methoxy]-2-oxo-1,2-dihydroquinolin-6-yl}amino)pyrimidin-2-yl]-2,6-dimethylpiperazin-1-yl]methyl}piperidin-1-yl)-N-(2,6-dioxopiperidin-3-yl)-2-fluorobenzamide], the IC50 lay in the range of 10 to 50 nM. Also, the Dmax (T47D) is below 50%.

On to `CNC(=O)COc1cc2cc(Nc3nc(N4CCN(C(C)(C)C5CCN(c6ccc7c(c6)C(=O)N(C6CCC(=O)NC6=O)C7=O)CC5)CC4)ncc3Cl)ccc2n(C(C)C)c1=O` (stereo not drawn) [compound 299, 2-{[6-({5-chloro-2-[4-(2-{1-[2-(2,6-dioxopiperidin-3-yl)-1,3-dioxo-2,3-dihydro-1H-isoindol-5-yl]piperidin-4-yl}propan-2-yl)piperazin-1-yl]pyrimidin-4-yl}amino)-2-oxo-1-(propan-2-yl)-1,2-dihydroquinolin-3-yl]oxy}-N-methylacetamide], for which the concentration for half-maximal inhibition (IC50) lay in the range of 10 to 50 nM. This compound also came in with a Dmax (T47D) of at least 70%.

In the case of `CNC(=O)COc1cc2cc(Nc3nc(N4CCC(O[C@H]5C[C@H](N6CCC(c7cccc8c7C(=O)N(C7CCC(=O)NC7=O)C8=O)CC6)C5)CC4)ncc3Cl)ccc2n(C(C)C)c1=O` (stereo partly drawn) [compound 409, 2-({6-[(5-chloro-2-{4-[(1r,3r)-3-{4-[2-(2,6-dioxopiperidin-3-yl)-1,3-dioxo-2,3-dihydro-1H-isoindol-4-yl]piperidin-1-yl}cyclobutoxy]piperidin-1-yl}pyrimidin-4-yl)amino]-2-oxo-1-(propan-2-yl)-1,2-dihydroquinolin-3-yl}oxy)-N-methylacetamide], for the setting “T47D cells”, the Dmax fell in the range of 50 to 70% and the IC50 was below 10 nM. For the compound `CCn1c(=O)c(OCC(=O)NC)cc2cc(Nc3nc(N4CCN(C(C)(C)C5CCN(c6ccc7c(c6)C(=O)N(C6CCC(=O)NC6=O)C7=O)CC5)CC4)ncc3Cl)ccc21` (stereo not drawn) [compound 304, 2-{[6-({5-chloro-2-[4-(2-{1-[2-(2,6-dioxopiperidin-3-yl)-1,3-dioxo-2,3-dihydro-1H-isoindol-5-yl]piperidin-4-yl}propan-2-yl)piperazin-1-yl]pyrimidin-4-yl}amino)-1-ethyl-2-oxo-1,2-dihydroquinolin-3-yl]oxy}-N-methylacetamide], the IC50 was below 10 nM. Besides, the greatest degradation seen (Dmax) (T47D) is at least 70%. As for `CNC(=O)COc1cc2cc(Nc3nc(N4CCC(OC5CC6(C5)CN(c5ccc(C(=O)NC7CCC(=O)NC7=O)c(OC)c5)C6)CC4)ncc3Cl)ccc2n(C(C)C)c1=O` (stereo not drawn) [compound 429, 4-[6-({1-[5-chloro-4-({3-[(methylcarbamoyl)methoxy]-2-oxo-1-(propan-2-yl)-1,2-dihydroquinolin-6-yl}amino)pyrimidin-2-yl]piperidin-4-yl}oxy)-2-azaspiro[3.3]heptan-2-yl]-N-(2,6-dioxopiperidin-3-yl)-2-methoxybenzamide], for the setting “T47D cells”, the Dmax is at least 70% and the IC50 is below 10 nM.
